What was measured:
Assay type in all cases: in vivo
kochia (Kochia scoparia) [1] = test: Test A postemergence, kochia; details: postemergence, 0 to 100 scale, 0 is no effect, 100 is complete control, approximately 10 days
Method in brief: (§1)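 Injury was assessed visually about ten days after application, relative to untreated plants, with 0 meaning no effect and 100 complete control. Treatments were soil-directed sprays after sowing (pre) or sprays on seedlings at one to two leaves (post), in loam soil/sand.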

[2] = test system: pigweed (Amaranthus retroflexus); test: Test A preemergence, pigweed; details: Preemergence, 0 to 100 scale (0 no effect, 100 complete control)
Method in brief: as §1

rice (Oryza sativa) = test: Test B flooded paddy test, rice; details: 250 g ai/ha, Flood; visual rating after 13 to 15 days; scale 0 to 100, 0 is no effect, 100 is complete control
Method in brief: (§2)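 Seedlings at the 2-leaf stage are flooded to 3 cm and treated via the paddy water. Greenhouse plants are compared with controls after 13 to 15 days and given a 0 (no effect) to 100 (complete control) rating.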

[3] = test system: wheat (Triticum aestivum); test: Test A postemergence, wheat; details: postemergence, 0 to 100 scale, 0 is no effect, 100 is complete control, approximately 10 days
Method in brief: as §1

[4] = test system: foxtail, giant (giant foxtail, Setaria faberii); test: Test A preemergence, giant foxtail; details: Preemergence, 0 to 100 scale (0 no effect, 100 complete control)
Method in brief: as §1

corn (Zea mays) = test: Test A postemergence, corn; details: postemergence, 0 to 100 scale, 0 is no effect, 100 is complete control, approximately 10 days
Method in brief: as §1

[5] = test system: barnyardgrass (Echinochloa crus-galli); test: Test B flooded paddy test, barnyardgrass; details: 250 g ai/ha, Flood; visual rating after 13 to 15 days; scale 0 to 100, 0 is no effect, 100 is complete control
Method in brief: as §2

[6] = test system: ragweed (common ragweed, Ambrosia elatior); test: Test A preemergence, ragweed; details: Preemergence, 0 to 100 scale (0 no effect, 100 complete control)
Method in brief: as §1

[7] = test system: galium (catchweed bedstraw, Galium aparine); test: Test A postemergence, galium; details: postemergence, 0 to 100 scale, 0 is no effect, 100 is complete control, approximately 10 days
Method in brief: as §1

kochia (Kochia scoparia) [8] = test: Test A preemergence, kochia; details: Preemergence, 0 to 100 scale (0 no effect, 100 complete control)
Method in brief: as §1

[9] = test system: sedge, umbrella (small-flower umbrella sedge, Cyperus difformis); test: Test B flooded paddy test, umbrella sedge; details: 250 g ai/ha, Flood; visual rating after 13 to 15 days; scale 0 to 100, 0 is no effect, 100 is complete control
Method in brief: as §2

[10] = test system: barnyardgrass (Echinochloa crus-galli); test: Test A preemergence, barnyardgrass; details: Preemergence, 0 to 100 scale (0 no effect, 100 complete control)
Method in brief: as §1

[11] = test system: ducksalad (Heteranthera limosa); test: Test B flooded paddy test, ducksalad; details: 250 g ai/ha, Flood; visual rating after 13 to 15 days; scale 0 to 100, 0 is no effect, 100 is complete control
Method in brief: as §2

[12] = test system: foxtail, giant (giant foxtail, Setaria faberii); test: Test A postemergence, giant foxtail; details: postemergence, 0 to 100 scale, 0 is no effect, 100 is complete control, approximately 10 days
Method in brief: as §1

[13] = test system: ryegrass, Italian (Italian ryegrass, Lolium multiflorum); test: Test A postemergence, Italian ryegrass; details: postemergence, 0 to 100 scale, 0 is no effect, 100 is complete control, approximately 10 days
Method in brief: as §1

[14] = test system: pigweed (Amaranthus retroflexus); test: Test A postemergence, pigweed; details: postemergence, 0 to 100 scale, 0 is no effect, 100 is complete control, approximately 10 days
Method in brief: as §1

[15] = test system: ryegrass, Italian (Italian ryegrass, Lolium multiflorum); test: Test A preemergence, Italian ryegrass; details: Preemergence, 0 to 100 scale (0 no effect, 100 complete control)
Method in brief: as §1

[16] = test system: blackgrass (Alopecurus myosuroides); test: Test A postemergence, blackgrass; details: postemergence, 0 to 100 scale, 0 is no effect, 100 is complete control, approximately 10 days
Method in brief: as §1

[17] = test system: ragweed (common ragweed, Ambrosia elatior); test: Test A postemergence, ragweed; details: postemergence, 0 to 100 scale, 0 is no effect, 100 is complete control, approximately 10 days
Method in brief: as §1

[18] = test system: barnyardgrass (Echinochloa crus-galli); test: Test A postemergence, barnyardgrass; details: postemergence, 0 to 100 scale, 0 is no effect, 100 is complete control, approximately 10 days
Method in brief: as §1

Structure (SMILES)	Plant response rating, Kochia (kochia (Kochia scoparia) [1]; 31 g ai/ha)	Plant response rating, Kochia (kochia (Kochia scoparia) [1]; 125 g ai/ha)	Plant response rating, Pigweed ([2]; 31 g ai/ha)	Plant response rating, Pigweed ([2]; 125 g ai/ha)	Plant response rating, Rice (rice (Oryza sativa))	Plant response rating, Wheat ([3]; 31 g ai/ha)	Plant response rating, Wheat ([3]; 125 g ai/ha)	Plant response rating, Foxtail, Giant ([4]; 31 g ai/ha)	Plant response rating, Foxtail, Giant ([4]; 125 g ai/ha)	Plant response rating, Corn (corn (Zea mays); 31 g ai/ha)	Plant response rating, Corn (corn (Zea mays); 125 g ai/ha)	Plant response rating, Barnyardgrass [5]	Plant response rating, Ragweed ([6]; 31 g ai/ha)	Plant response rating, Ragweed ([6]; 125 g ai/ha)	Plant response rating, Galium ([7]; 31 g ai/ha)	Plant response rating, Galium ([7]; 125 g ai/ha)	Plant response rating, Kochia (kochia (Kochia scoparia) [8]; 31 g ai/ha)	Plant response rating, Kochia (kochia (Kochia scoparia) [8]; 125 g ai/ha)	Plant response rating, Sedge, Umbrella [9]	Plant response rating, Barnyardgrass ([10]; 31 g ai/ha)	further results
Cl/C=C/COc1c(Cl)cccc1Oc1ncc(Cl)cn1 [Compound 48]	60	100	0	60	20	0	10	30	80	10	20	20	0	0	10	30	0	80	70	10	Plant response rating, Barnyardgrass ([10]; 125 g ai/ha): 60; Plant response rating, Ducksalad [11]: 70; Plant response rating, Foxtail, Giant ([12]; 31 g ai/ha): 20; Plant response rating, Foxtail, Giant ([12]; 125 g ai/ha): 60; Plant response rating, Ryegrass, Italian ([13]; 31 g ai/ha): 0; Plant response rating, Ryegrass, Italian ([13]; 125 g ai/ha): 0; Plant response rating, Pigweed ([14]; 31 g ai/ha): 50; Plant response rating, Pigweed ([14]; 125 g ai/ha): 80; Plant response rating, Ryegrass, Italian ([15]; 31 g ai/ha): 0; Plant response rating, Ryegrass, Italian ([15]; 125 g ai/ha): 10; Plant response rating, Blackgrass ([16]; 31 g ai/ha): 0; Plant response rating, Blackgrass ([16]; 125 g ai/ha): 10; Plant response rating, Ragweed ([17]; 31 g ai/ha): 0; Plant response rating, Ragweed ([17]; 125 g ai/ha): 10; Plant response rating, Barnyardgrass ([18]; 31 g ai/ha): 10; Plant response rating, Barnyardgrass ([18]; 125 g ai/ha): 50
FC(F)(F)C(F)(F)CCCOc1c(Br)cccc1Oc1ncc(Cl)cn1 [Compound 49]	0	30	0	0	0	0	0	0	40	10	10	0	0	0	10	30	0	0	0	0	Plant response rating, Barnyardgrass ([10]; 125 g ai/ha): 10; Plant response rating, Ducksalad [11]: 0; Plant response rating, Foxtail, Giant ([12]; 31 g ai/ha): 0; Plant response rating, Foxtail, Giant ([12]; 125 g ai/ha): 10; Plant response rating, Ryegrass, Italian ([13]; 31 g ai/ha): 0; Plant response rating, Ryegrass, Italian ([13]; 125 g ai/ha): 20; Plant response rating, Pigweed ([14]; 31 g ai/ha): 10; Plant response rating, Pigweed ([14]; 125 g ai/ha): 60; Plant response rating, Ryegrass, Italian ([15]; 31 g ai/ha): 0; Plant response rating, Ryegrass, Italian ([15]; 125 g ai/ha): 0; Plant response rating, Blackgrass ([16]; 31 g ai/ha): 0; Plant response rating, Blackgrass ([16]; 125 g ai/ha): 0; Plant response rating, Ragweed ([17]; 31 g ai/ha): 10; Plant response rating, Ragweed ([17]; 125 g ai/ha): 20; Plant response rating, Barnyardgrass ([18]; 31 g ai/ha): 0; Plant response rating, Barnyardgrass ([18]; 125 g ai/ha): 0
CCCOc1c(C#N)cccc1Oc1ncc(Cl)cn1 [Compound 50]	20	80	20	100	0	0	0	10	90	10	10	30	0	0	10	40	20	100	60	10	Plant response rating, Barnyardgrass ([10]; 125 g ai/ha): 20; Plant response rating, Ducksalad [11]: 50; Plant response rating, Foxtail, Giant ([12]; 31 g ai/ha): 0; Plant response rating, Foxtail, Giant ([12]; 125 g ai/ha): 20; Plant response rating, Ryegrass, Italian ([13]; 31 g ai/ha): 0; Plant response rating, Ryegrass, Italian ([13]; 125 g ai/ha): 0; Plant response rating, Pigweed ([14]; 31 g ai/ha): 20; Plant response rating, Pigweed ([14]; 125 g ai/ha): 70; Plant response rating, Ryegrass, Italian ([15]; 31 g ai/ha): 0; Plant response rating, Ryegrass, Italian ([15]; 125 g ai/ha): 0; Plant response rating, Blackgrass ([16]; 31 g ai/ha): 0; Plant response rating, Blackgrass ([16]; 125 g ai/ha): 10; Plant response rating, Ragweed ([17]; 31 g ai/ha): 10; Plant response rating, Ragweed ([17]; 125 g ai/ha): 10; Plant response rating, Barnyardgrass ([18]; 31 g ai/ha): 0; Plant response rating, Barnyardgrass ([18]; 125 g ai/ha): 20
CCCCCOc1c(C#N)cccc1Oc1ncc(Cl)cn1 [Compound 51]	40	70	10	50	0	0	0	40	100	10	20	0	0	0	40	70	0	40	95	10	Plant response rating, Barnyardgrass ([10]; 125 g ai/ha): 40; Plant response rating, Ducksalad [11]: 80; Plant response rating, Foxtail, Giant ([12]; 31 g ai/ha): 10; Plant response rating, Foxtail, Giant ([12]; 125 g ai/ha): 40; Plant response rating, Ryegrass, Italian ([13]; 31 g ai/ha): 0; Plant response rating, Ryegrass, Italian ([13]; 125 g ai/ha): 10; Plant response rating, Pigweed ([14]; 31 g ai/ha): 10; Plant response rating, Pigweed ([14]; 125 g ai/ha): 40; Plant response rating, Ryegrass, Italian ([15]; 31 g ai/ha): 0; Plant response rating, Ryegrass, Italian ([15]; 125 g ai/ha): 0; Plant response rating, Blackgrass ([16]; 31 g ai/ha): 0; Plant response rating, Blackgrass ([16]; 125 g ai/ha): 20; Plant response rating, Ragweed ([17]; 31 g ai/ha): 0; Plant response rating, Ragweed ([17]; 125 g ai/ha): 10; Plant response rating, Barnyardgrass ([18]; 31 g ai/ha): 10; Plant response rating, Barnyardgrass ([18]; 125 g ai/ha): 30
